Test results published in US7855208B2, “3, 9-diazabicyclo(3.3.1)non-3-yl-aryl methanone derivatives as nicotinic acetylcholine receptor agonists” (NeuroSearch A/S, priority 2006, dated 2010).

Molecular target: T1, α7-subtype of nicotinic receptors (Rattus norvegicus, UniProt Q05941)
T1 construct: Cerebral cortices from male Wistar rats (150-250 g) are homogenised; from tissue; host or cells: rat cerebral cortex membrane homogenate
Test: In vitro inhibition of 3H-α-bungarotoxine binding in rat brain
Conditions: rat cerebral cortex homogenate, 3H-α-bungarotoxine 2 nM

T1 sequence (Q05941 23-502): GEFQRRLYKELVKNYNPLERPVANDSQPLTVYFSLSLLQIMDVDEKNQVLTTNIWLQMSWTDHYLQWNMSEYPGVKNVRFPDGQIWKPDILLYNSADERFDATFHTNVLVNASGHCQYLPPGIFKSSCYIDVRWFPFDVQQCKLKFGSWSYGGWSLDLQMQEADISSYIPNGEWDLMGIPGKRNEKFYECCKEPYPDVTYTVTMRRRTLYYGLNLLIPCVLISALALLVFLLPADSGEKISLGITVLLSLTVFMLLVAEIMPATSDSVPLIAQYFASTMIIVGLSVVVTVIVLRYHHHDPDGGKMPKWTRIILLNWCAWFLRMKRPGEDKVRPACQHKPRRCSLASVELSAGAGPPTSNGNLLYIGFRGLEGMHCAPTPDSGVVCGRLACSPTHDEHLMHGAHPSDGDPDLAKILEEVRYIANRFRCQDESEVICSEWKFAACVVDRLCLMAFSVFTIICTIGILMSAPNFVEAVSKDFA

Structure (SMILES)	IC50 [nM]
CN1C2CCCC1CN(C(=O)c1ccc(-c3ccc(N)cc3)o1)C2 [Compound B1]	420

Tested on: not given
Test: not given
Conditions: not given

Structure (SMILES)	melting point [°C]
CN1C2CCCC1CN(C(=O)c1ccc(-c3ccc(NC(=O)c4ccccc4)cc3)o1)C2.O=C(O)/C=C/C(=O)O	246 to 252
CN1C2CCCC1CN(C(=O)c1ccc(-c3ccc(N)cc3)o1)C2 [Compound B1]	147 to 149

Next, values leading:

melting point [°C]	Structure (SMILES)
263	CN1C2CCCC1CN(C(=O)c1ccc(-c3ccc([N+](=O)[O-])cc3)o1)C2.Cl
154 to 161	CCNC(=O)Nc1ccc(-c2ccc(C(=O)N3CC4CCCC(C3)N4C)o2)cc1.O=C(O)/C=C/C(=O)O
197 to 229	CC(=O)Nc1ccc(-c2ccc(C(=O)N3CC4CCCC(C3)N4C)o2)cc1.O=C(O)/C=C/C(=O)O
